Experimental findings from ChEMBL document CHEMBL4507319 (2021) are described below.

Molecules are shown by their SMILES.

Assay [1] has as its target Sigma intracellular receptor 2 (Homo sapiens, UniProt Q5BJF2). The assay is described as follows: GPCRScan assay: inhibition of Sigma 2. Details: radioligand conc. used [nm] 5.0, parental cells HEKT.
The target of assay [2] is T1, Activin receptor type-1B (Homo sapiens) (UniProt P36896).
T1 sequence (whole entry): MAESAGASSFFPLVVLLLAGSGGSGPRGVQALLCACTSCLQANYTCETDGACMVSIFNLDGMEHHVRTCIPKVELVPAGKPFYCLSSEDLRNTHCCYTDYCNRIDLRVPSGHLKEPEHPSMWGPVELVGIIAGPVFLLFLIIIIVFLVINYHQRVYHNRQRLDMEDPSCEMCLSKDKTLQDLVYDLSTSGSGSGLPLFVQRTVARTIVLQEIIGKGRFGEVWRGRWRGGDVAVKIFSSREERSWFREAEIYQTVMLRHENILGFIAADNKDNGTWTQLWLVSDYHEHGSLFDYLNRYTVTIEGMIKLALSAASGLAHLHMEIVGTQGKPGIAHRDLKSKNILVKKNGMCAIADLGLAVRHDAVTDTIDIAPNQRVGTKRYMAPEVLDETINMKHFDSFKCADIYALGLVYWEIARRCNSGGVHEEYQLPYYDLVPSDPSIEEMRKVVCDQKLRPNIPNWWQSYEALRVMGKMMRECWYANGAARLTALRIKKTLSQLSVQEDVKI
The note with it: Compound concentration 1000.0 nM.

Assay [3] addresses Calcium/calmodulin-dependent protein kinase type II subunit alpha (Homo sapiens) (UniProt Q9UQM7). The note with it: Compound concentration 1000.0 nM.
Assay [4] addresses Calcium/calmodulin-dependent protein kinase type II subunit gamma (Homo sapiens) (UniProt Q13555). The settings on record: Compound concentration 1000.0 nM.
The target in assay [5] is Calcium/calmodulin-dependent protein kinase kinase 1 (Homo sapiens) (UniProt Q8N5S9). The note with it: Compound concentration 1000.0 nM.
The target of assay [6] is Cyclin-dependent kinase 7 (Homo sapiens) (UniProt P50613). The settings on record: Compound concentration 1000.0 nM.
The target of assay [7] is Ephrin type-A receptor 5 (Homo sapiens) (UniProt P54756). The note with it: Compound concentration 1000.0 nM.
In assay [8] the target is T2, Mitogen-activated protein kinase 12 (Homo sapiens) (UniProt P53778).
T2 sequence (whole entry): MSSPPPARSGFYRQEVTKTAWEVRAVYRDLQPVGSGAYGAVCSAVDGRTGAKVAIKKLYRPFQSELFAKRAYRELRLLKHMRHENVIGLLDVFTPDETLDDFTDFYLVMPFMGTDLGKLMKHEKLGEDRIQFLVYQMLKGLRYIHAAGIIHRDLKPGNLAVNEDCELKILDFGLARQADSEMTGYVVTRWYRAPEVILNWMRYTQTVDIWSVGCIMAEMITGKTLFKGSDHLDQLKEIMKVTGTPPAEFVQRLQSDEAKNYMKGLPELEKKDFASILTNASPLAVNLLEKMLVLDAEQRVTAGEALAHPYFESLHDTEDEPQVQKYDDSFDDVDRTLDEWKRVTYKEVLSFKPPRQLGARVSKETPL
The settings on record: Compound concentration 1000.0 nM.

Assay [9] concerns Phosphatidylinositol 4,5-bisphosphate 3-kinase catalytic subunit alpha isoform (Homo sapiens), P42336 [E545A]. The note with it: Compound concentration 1000.0 nM.
Assay [10] addresses T3, Serine/threonine-protein kinase D1 (Homo sapiens) (UniProt Q15139).
T3 sequence (whole entry): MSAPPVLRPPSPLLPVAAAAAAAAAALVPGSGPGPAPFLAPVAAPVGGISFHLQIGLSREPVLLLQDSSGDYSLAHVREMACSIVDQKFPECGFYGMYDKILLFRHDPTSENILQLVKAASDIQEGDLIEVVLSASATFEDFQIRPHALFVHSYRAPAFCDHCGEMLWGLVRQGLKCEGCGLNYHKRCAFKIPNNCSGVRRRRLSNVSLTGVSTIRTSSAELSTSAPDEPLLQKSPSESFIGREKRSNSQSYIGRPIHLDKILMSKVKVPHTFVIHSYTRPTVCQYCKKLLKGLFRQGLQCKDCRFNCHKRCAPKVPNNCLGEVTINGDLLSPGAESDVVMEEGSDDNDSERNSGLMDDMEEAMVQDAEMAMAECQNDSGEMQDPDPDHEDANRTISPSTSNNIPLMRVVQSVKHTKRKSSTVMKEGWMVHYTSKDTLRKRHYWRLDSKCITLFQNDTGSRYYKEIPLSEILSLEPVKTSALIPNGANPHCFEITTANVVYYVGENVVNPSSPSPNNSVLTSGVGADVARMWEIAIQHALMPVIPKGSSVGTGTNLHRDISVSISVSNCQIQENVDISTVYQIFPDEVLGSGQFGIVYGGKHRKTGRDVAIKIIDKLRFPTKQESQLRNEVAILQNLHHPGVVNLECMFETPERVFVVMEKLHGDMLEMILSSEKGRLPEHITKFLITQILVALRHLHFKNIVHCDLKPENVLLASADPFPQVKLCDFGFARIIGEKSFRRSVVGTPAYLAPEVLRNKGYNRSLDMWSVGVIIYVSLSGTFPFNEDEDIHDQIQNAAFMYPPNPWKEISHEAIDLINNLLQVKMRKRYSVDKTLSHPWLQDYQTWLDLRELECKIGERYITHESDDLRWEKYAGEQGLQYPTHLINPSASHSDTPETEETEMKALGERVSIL
The note with it: Compound concentration 1000.0 nM.

Assay [11] deals with T4, TGF-beta receptor type-1 (Homo sapiens) (UniProt P36897).
T4 sequence (whole entry): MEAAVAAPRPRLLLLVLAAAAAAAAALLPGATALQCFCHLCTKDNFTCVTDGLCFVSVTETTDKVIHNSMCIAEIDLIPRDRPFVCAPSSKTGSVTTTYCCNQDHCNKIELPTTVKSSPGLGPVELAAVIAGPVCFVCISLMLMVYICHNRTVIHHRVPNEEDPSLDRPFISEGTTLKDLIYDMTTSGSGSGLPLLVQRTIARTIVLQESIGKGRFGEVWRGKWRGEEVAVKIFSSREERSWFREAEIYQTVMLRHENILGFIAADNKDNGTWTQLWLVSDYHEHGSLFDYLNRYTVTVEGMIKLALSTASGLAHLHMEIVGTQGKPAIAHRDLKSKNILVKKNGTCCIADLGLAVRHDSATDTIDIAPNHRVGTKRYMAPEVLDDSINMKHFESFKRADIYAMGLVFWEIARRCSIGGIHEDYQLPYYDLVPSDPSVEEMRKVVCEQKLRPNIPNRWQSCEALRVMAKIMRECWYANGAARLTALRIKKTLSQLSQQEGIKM
The settings on record: Compound concentration 1000.0 nM.

The target of assay [12] is Non-receptor tyrosine-protein kinase TNK1 (Homo sapiens) (UniProt Q13470). The note with it: Compound concentration 1000.0 nM.
The target of assay [13] is Serine/threonine-protein kinase 25 (Homo sapiens) (UniProt O00506). The note with it: Compound concentration 1000.0 nM.
Chain of Serine/threonine-protein kinase 25 (Homo sapiens) (O00506 whole entry, looked up): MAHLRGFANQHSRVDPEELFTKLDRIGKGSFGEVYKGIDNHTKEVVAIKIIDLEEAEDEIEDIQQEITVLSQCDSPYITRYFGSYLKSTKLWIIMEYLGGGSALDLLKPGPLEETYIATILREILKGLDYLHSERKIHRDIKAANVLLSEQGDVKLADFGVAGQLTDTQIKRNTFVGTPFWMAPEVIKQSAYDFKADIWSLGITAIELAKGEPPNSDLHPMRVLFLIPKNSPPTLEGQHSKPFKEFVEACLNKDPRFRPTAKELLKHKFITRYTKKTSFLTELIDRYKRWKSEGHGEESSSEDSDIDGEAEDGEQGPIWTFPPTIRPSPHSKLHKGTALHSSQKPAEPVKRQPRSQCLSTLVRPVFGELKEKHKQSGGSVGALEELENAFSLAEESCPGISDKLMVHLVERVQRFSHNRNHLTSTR

Chain of Calcium/calmodulin-dependent protein kinase type II subunit alpha (Homo sapiens) (Q9UQM7 whole entry): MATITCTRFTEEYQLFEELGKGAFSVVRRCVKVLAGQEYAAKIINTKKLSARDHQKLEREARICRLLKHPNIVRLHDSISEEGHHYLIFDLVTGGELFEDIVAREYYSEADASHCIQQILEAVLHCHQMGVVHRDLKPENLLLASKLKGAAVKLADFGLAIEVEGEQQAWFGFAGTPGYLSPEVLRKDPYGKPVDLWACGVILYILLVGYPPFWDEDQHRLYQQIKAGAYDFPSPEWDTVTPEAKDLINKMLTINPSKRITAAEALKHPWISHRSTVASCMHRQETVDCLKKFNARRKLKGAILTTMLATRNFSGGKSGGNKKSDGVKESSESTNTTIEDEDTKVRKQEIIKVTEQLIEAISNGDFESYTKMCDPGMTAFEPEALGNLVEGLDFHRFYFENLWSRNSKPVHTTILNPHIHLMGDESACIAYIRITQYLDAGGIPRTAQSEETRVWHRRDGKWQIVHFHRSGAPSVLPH
Chain of Non-receptor tyrosine-protein kinase TNK1 (Homo sapiens) (Q13470 whole entry): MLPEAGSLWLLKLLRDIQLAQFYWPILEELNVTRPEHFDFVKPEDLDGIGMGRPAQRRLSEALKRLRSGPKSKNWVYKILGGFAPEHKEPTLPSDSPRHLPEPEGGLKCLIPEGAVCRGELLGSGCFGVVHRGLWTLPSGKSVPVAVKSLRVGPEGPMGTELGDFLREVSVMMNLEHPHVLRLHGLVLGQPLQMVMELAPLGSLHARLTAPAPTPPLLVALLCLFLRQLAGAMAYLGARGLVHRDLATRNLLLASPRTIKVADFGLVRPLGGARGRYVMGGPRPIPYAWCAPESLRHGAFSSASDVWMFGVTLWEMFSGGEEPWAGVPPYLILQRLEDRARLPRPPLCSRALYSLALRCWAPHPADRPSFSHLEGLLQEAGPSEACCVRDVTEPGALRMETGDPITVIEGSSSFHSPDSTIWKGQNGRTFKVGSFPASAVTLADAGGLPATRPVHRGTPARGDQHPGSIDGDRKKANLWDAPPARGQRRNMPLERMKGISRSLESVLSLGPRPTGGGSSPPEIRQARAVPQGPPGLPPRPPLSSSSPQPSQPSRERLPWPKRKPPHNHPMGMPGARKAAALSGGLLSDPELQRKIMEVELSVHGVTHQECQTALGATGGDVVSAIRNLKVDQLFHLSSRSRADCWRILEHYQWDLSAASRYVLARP
Chain of Phosphatidylinositol 4,5-bisphosphate 3-kinase catalytic subunit alpha isoform (Homo sapiens), P42336 [E545A] (P42336 whole entry E545A, canonical isoform): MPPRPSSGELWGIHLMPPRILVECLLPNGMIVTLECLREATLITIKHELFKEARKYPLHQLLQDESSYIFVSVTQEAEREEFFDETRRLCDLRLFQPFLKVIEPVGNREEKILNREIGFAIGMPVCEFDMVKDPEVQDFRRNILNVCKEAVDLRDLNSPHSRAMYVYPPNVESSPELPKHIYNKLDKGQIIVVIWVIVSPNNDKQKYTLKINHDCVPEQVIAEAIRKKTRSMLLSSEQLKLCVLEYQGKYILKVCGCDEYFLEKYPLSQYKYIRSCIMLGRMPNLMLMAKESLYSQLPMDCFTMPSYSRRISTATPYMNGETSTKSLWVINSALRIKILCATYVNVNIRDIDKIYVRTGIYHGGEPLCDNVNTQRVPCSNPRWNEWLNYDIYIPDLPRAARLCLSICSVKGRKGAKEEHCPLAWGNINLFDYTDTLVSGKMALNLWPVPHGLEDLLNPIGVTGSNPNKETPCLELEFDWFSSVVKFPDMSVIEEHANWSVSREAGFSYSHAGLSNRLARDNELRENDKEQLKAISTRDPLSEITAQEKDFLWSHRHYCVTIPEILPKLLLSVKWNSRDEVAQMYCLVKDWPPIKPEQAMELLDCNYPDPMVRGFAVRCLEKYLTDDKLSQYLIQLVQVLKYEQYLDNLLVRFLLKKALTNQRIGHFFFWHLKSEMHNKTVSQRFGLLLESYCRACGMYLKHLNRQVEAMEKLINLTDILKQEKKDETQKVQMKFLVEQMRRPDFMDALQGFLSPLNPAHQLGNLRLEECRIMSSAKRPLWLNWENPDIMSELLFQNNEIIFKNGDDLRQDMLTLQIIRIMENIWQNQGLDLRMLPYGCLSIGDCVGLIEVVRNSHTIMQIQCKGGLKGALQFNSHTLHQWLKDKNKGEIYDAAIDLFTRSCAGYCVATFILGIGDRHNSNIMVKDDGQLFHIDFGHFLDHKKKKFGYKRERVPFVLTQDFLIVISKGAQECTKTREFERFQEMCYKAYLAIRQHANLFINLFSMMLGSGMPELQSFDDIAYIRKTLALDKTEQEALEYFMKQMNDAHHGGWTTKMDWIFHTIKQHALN
Chain of Sigma intracellular receptor 2 (Q5BJF2 whole entry): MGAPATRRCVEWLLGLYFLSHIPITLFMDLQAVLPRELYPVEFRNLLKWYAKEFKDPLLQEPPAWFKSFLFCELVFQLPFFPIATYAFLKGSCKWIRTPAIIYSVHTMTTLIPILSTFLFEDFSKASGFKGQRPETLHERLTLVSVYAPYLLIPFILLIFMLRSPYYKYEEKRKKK
Chain of Ephrin type-A receptor 5 (Homo sapiens) (P54756 whole entry): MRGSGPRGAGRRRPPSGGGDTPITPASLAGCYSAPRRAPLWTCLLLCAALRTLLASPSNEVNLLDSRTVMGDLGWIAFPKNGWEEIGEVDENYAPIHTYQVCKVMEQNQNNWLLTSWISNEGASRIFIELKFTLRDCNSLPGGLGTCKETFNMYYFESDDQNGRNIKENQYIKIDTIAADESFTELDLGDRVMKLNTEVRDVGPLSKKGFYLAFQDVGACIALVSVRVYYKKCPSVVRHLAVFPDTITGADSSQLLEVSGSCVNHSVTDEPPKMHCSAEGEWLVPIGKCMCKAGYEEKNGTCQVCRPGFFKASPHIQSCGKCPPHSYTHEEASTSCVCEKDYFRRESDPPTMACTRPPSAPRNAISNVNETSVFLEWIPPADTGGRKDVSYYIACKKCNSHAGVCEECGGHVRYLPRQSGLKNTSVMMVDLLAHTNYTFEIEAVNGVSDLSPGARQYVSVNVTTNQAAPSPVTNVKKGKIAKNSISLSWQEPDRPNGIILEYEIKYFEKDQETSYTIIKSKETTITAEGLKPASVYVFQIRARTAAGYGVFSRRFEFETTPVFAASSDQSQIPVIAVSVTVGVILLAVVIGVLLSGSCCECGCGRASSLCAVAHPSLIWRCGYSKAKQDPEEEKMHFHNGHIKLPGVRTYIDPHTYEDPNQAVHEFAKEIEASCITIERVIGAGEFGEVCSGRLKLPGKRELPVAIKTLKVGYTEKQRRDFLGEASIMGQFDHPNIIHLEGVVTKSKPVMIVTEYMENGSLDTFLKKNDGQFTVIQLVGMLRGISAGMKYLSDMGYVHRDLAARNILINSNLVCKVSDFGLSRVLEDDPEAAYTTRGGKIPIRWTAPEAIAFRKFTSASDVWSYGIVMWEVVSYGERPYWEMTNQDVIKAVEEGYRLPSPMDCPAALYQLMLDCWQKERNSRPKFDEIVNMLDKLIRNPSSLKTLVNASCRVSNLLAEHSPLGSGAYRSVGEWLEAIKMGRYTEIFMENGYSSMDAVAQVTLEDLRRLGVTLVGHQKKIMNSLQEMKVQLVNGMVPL
Chain of Cyclin-dependent kinase 7 (Homo sapiens) (P50613 whole entry): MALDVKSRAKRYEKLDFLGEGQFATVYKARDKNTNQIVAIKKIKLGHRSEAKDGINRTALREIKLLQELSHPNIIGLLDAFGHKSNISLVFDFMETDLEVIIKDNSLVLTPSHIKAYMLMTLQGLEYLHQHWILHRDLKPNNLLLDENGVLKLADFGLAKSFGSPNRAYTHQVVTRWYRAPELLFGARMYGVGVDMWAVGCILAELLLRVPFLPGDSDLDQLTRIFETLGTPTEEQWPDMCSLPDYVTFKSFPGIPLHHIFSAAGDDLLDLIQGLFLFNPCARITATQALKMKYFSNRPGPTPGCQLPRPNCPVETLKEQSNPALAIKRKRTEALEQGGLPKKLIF
Chain of Calcium/calmodulin-dependent protein kinase kinase 1 (Homo sapiens) (Q8N5S9 whole entry, looked up): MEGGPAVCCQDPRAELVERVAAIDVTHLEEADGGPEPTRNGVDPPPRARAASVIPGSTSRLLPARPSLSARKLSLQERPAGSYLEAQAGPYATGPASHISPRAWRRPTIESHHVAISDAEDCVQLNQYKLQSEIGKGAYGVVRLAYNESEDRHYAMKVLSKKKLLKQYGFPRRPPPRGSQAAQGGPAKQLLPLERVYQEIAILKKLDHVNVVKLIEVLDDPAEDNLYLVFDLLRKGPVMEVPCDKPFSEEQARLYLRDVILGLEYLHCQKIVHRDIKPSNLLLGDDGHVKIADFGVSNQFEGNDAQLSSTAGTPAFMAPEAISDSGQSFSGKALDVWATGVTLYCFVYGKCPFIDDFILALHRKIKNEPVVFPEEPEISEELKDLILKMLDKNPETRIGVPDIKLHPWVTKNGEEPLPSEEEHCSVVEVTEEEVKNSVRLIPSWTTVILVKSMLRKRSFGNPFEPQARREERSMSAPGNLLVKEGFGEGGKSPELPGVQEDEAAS

Regarding `CC1=C(C#N)C(c2ccc3c(c2)c(NC(=O)c2ccccc2C)nn3C)C(C#N)=C(C)N1` [BAY-974], the Ki in assay [1] amounted to 4.47 µM. For the same molecule, the residual activity in assay [2] is 80%; in [3], 90%; in assay [4] it was 100%; in assay [5] it was 100%; in [6] it was 58%; in assay [7], 77%. In addition, the residual activity in assay [8] is 68%; in assay [9], 71%; in assay [10], 92%; in [11], 100%; in assay [12] it was 76%; in [13], 100%.

As to `CCc1ccccc1C(=O)Nc1n[nH]c2c(C)c(F)c(C3C(C#N)=C(C)N(C)C(C)=C3C#N)cc12` [BAY-3827], in assay [1], the Ki turned out to be 2.84 µM. The residual activity in assay [2] is 100%; in [3], 47%; in assay [4], 79%; in assay [5] it was 100%; in assay [6], 90%; in [7] it was 87%. The residual activity in assay [8] is 76%; in assay [9] it was 100%; in [10], 100%; in [11], 58%; in [12], 100%; in assay [13] it was 80%.

As a reminder, the Ki is a measure of affinity in units of concentration, obtained from inhibition or displacement.
